Experimental data as given in patent US20260345798A1, “COMPOUNDS AND METHODS OF USE THEREOF” (Virginia Commonwealth University, priority 2023, published 2026).
Residues, ends and D or L forms follow the SMILES beside them.

Tests used:
MMP-2 and MMP-9 = MMP-2 and MMP-9 protein by Western blotting; assay type: cell-based, human; conditions: Western blot; A-375, C8161.9, 24 hours; FIG. 4B
Protocol: FIG. 4B is a Western blot of C8161.9 and A-375 cells treated with indicated doses of IVMT-Rx-3 for 24 hours. Cell lysates were subjected to Western blotting analysis to determine the expression levels of various signaling proteins (as shown) associated with MDA-9/Syntenin: Src interactions. Western blotting densitometry and relative intensity of protein bands were calculated using Image J software. The values are provided.
(§1) Western blotting was performed following a standard protocol as described previously (6,8,18,29). Antibodies used in this study were purchased from Cell Signaling Technology (Boston, MA): p-Src (Y416), total Src, matrix metalloproteinase-2 (MMP-2) and matrix metaloproteinase-9 (MMP-9), focal adhesion kinase (FAK), p IKKα/β (S176/180), total IKK, p P38 (T180/Y182) and total P38. MDA-9/Syntenin antibody was obtained from Abnova Inc. (Taiwan). β-actin (Sigma-Aldrich, St. Louis, MO) was used as an endogenous loading control. Fibronectin was purchased from EMD Millipore (Billerica, MA).

B16 lung metastases = assay: B16 lung metastasis model in C57BL/6 mice; assay type: in vivo, mouse; conditions: 30 mg/kg I.P., 3× per week, 6 injections
Protocol: FIG. 6A is a series of images of B16 lung metastases in C57BL/6 mice treated with DMSO vehicle, PDZ1i, or IVMT-Rx-3 (intraperitoneal injection of 30 mg/kg, 3×/week, 6 injections total). 1×10^5 B16 cells were injected intravenously in C57BL/6 mice (n=7, per group) prior to treatment.
FIG. 6B is a series of histograms showing the number of nodules/lung, T cell populations (CD8^+IFN-γ^+) and myeloid-derived suppressor cells (MDSCs) in the lungs of the treatment groups described in FIG. 6A, as measured by flow cytometry. *: Statistical significance (p<0.05);**: Statistical significance (p<0.01);***: Statistical significance (p<0.001). ****: Statistical significance (p<0.0001).
All animal experiments were performed according to guidelines established by VCU IACUC. Immune competent mice (6-week-old male C57BL/6) were used in this study for determining the anti-metastatic efficiency of IVMT-Rx-3. Mice were purchased from Jackson Laboratories and after one-week in barrier facilities, experiments were performed. To establish lung metastases, murine B16 (1×10^5 cells/0.1 ml PBS) were injected via tail vein in C57BL/6 mice (18). Test chemical (IVMT-Rx-3) was administrated at 30 mg/kg body weight three times a week I.P. for the first two weeks (six injections, C57BL/6 study). DMSO was used as control. Anti-PD-L1 antibody and control antibodies for therapeutic injections were purchased from Bio X Cell (West Lebanon, NH, USA).
1×10^5 B16 cells were injected intravenously in C57BL/6 mice and treated with IVMT-Rx-3 (intraperitoneal injection 30 mg/kg, 3× in a week, 6 injections in total). 100 μg of Anti-PD-L1 antibody was injected through the I/P (intraperitoneal) route (3 times a week, over a 2-week period). A set of 20 animals were first injected with B16 cells (1×10^5 cells/mouse) and randomly divided into four groups (n=5) for survival studies. As stated in the above-mentioned lung metastasis protocol, mice received 6 doses of control vehicle or IVMT-Rx-3 either alone or in combination with anti-PD-L1 over the first two weeks. […]

MDA-9/Syntenin [1] = biological target: T1, MDA-9/Syntenin (Homo sapiens, UniProt O00560); assay: Microscale thermophoresis (MST) binding affinity; conditions: His-tagged recombinant MDA-9/Syntenin 175 nM, PBS-T pH 7.4, 25 °C, ± S.E., read-out: dissociation constant (KD)
T1 sequence (O00560 1-298): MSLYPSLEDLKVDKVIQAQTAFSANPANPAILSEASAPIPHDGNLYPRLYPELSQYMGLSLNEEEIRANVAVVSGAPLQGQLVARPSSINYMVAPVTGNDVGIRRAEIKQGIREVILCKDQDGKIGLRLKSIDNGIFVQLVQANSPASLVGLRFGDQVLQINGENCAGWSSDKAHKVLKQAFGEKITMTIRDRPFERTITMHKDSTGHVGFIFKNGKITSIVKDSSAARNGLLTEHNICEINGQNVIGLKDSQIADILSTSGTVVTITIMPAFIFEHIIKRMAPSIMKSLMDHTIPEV
Protocol: FIG. 1C is a binding curve of IVMT-Rx-3 bound to MDA-9/Syntenin. The binding constant Ka was measured from the binding curve generated through a microscale thermophoresis (MST) assay.
Binding affinity was measured using microscale thermophoresis (MST) experiments performed on a Monolith NT. Automated instrument (NanoTemper Technologies GmbH, Munich, Germany). His-tagged MDA-9/Syntenin was first labeled with RED-tris-NTA (λEX-650 nm, λEM=670 nm; Cat #MO-LO18) according to the manufacturer's protocol. Briefly, 700 nM MDA-9 in 100 mM phosphate-buffered saline, pH 7.4, containing 0.05% Tween 20 (PBS-T) was added to an equal volume of 100 nM RED-tris-NTA in PBS-T and the mixture was incubated at room temperature for 30 min, centrifuged at 15,000 g for 10 min at 4 °C, and the supernatant containing the labeled protein was transferred to a new tube for use in affinity measurements. […] After a 10-min incubation, the samples were loaded into premium capillary chips and thermophoretic measurements were performed (25 °C, 27% excitation power, medium MST power, 20 s laser on) to follow changes in normalized fluorescence (Fnorm) at different IVMT-Rx-3 concentrations (FIG. 1C). These changes were analyzed using the standard hyperbolic binding isotherm (SigmaPlot) to obtain the affinity of IVMT-Rx-3 for MDA-9/Syntenin. […]

[2] = system: Src and P38 in B16 melanoma cells; assay: Western blotting, B16 cells; assay type: cell-based; conditions: B16 mouse melanoma cells, Western blot
Protocol: as §1

MDA-9/Syntenin [3] = biological target: T1, MDA-9/Syntenin; assay: NMR titration / ITC binding and HSQC mapping

For `Cc1cc(NC(=O)c2nc3[nH]c4c(c(=O)n3n2)CCC4)c(C)cc1NC(=O)CCOCCC(=O)N[C@H](C(=O)N[C@@H](CC(N)=O)C(=O)N[C@@H](CCC(=O)O)C(=O)N[C@@H](Cc1ccc(O)cc1)C(=O)N[C@@H](Cc1ccc(O)cc1)C(=O)N[C@H](C(=O)O)C(C)C)[C@@H](C)O` [IVMT-Rx-3] (HELM PEPTIDE1{[Cc1cc(NC(=O)c2nc3[nH]c4c(c(=O)n3n2)CCC4)c(C)cc1NC(=O)CCOCCC(=O)[*:2]].T.N.E.Y.Y.V}$$$$V2.0), the “MMP-2 and MMP-9 expression (translational level)” value (MMP-2 and MMP-9) was “down regulation”, the “efficacy against lung metastases compared with PDZ1i” value (B16 lung metastases) was “significantly higher compared with PDZ1i” and the “lung metastasis (combination experiment)” value (B16 lung metastases; single agent) was “markedly reduced lung metastasis”. For the same compound, the “number of lung nodules” value (B16 lung metastases; vs vehicle) was “significantly reduced the number of lung nodules”, the Kd (MDA-9/Syntenin [1]) was 63 µM and the “Src and downstream P38” value [2] was “downregulation of Src and downstream P38”. For the same compound, the Kd (MDA-9/Syntenin [3]; ITC, fitted to a single binding event, NMR titration provides similar values, read-out: overall dissociation constant of the complex, Kd) was under 1000 nM, the “induction of chemical shifts (NMR mapping)” value (MDA-9/Syntenin [3]; NMR mapping studies) was “induces chemical shifts in both domains” and the “perturbation of Met201 (PDZ2) and Met188 (PDZ1)” value (MDA-9/Syntenin [3]; [13C,1H]-HSQC, 20 μM 13C-Met-labeled MDA-9/Syntenin, 40 μM compound) was “both clearly perturbed”.
